Test results: patent US7792665B2, “Method for designing a compound based on the three dimensional structure of phosphoinositide dependent protein kinase 1 (PDK1)” (Medical Research Council, priority 2002, dated 2010)
Where “and” joins values, the source holds several entries; their conditions need not be identical. Equal values may be shown once. One block for each molecule: values may come before it. Where no end group is shown, it is not given here. [ ]: non-standard residue; d: D form. pT = C[C@@H](OP(=O)(O)O)[C@H](N)C(=O)O

What was measured:
PDK1 [1] = target: T1, PDK1 (Homo sapiens, UniProt O15530); assay: PDK1 protein kinase assay with PDK1tide substrate and [γ-32P]ATP; assay type: biochemical; conditions: 1 μM inhibitor, 0.1 mM ATP, average of triplicate
T1 sequence (O15530 1-556): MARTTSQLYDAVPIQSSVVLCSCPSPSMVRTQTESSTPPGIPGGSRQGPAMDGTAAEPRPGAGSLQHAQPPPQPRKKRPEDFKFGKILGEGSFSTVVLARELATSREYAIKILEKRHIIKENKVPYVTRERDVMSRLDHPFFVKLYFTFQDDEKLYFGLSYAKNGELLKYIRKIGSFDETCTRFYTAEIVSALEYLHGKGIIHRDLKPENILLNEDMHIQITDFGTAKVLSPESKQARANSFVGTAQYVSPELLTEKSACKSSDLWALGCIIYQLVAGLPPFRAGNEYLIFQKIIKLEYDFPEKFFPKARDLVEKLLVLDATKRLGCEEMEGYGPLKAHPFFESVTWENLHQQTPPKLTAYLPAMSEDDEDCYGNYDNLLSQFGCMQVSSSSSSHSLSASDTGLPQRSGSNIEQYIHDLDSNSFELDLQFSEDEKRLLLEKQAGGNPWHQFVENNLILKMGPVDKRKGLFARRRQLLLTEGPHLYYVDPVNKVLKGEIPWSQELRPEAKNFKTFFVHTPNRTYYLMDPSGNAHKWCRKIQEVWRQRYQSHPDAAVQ
Protocol: (§1) Other protein kinases employed in Table 5, were assayed as described previously.
A structure-based sequence alignment of known kinase structures was obtained from, which was used to validate the sequence-based sequence alignment (Table 5).

CHK1 [2] = target: T2, CHK1 (Homo sapiens, UniProt O14757); assay: Kinase panel assay, CHK1; assay type: biochemical; conditions: 1 μM inhibitor, 0.1 mM ATP, average of triplicate
T2 sequence (O14757 1-476): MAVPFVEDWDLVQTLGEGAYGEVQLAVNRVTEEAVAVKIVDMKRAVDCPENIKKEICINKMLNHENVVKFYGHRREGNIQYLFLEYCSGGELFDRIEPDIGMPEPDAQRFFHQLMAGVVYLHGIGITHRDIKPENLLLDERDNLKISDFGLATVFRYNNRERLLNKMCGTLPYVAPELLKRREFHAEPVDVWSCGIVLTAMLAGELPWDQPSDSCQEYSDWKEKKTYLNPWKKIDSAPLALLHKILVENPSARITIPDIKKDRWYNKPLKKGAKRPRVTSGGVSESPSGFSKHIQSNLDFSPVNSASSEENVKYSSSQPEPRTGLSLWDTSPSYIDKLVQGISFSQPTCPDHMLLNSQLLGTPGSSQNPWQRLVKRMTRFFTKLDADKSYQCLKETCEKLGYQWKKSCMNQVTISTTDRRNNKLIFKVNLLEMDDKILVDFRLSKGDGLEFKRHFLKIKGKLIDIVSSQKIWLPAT

PKCα = PKCα (Homo sapiens, UniProt P17252); assay: Kinase panel assay, PKCα; assay type: biochemical; conditions: 1 μM inhibitor, 0.1 mM ATP, average of triplicate
AMPK = assay: Kinase panel assay, AMPK; assay type: biochemical; conditions: 1 μM inhibitor, 0.1 mM ATP, average of triplicate
Protocol: as §1

PHOS.KINASE = PHOS.KINASE (Oryctolagus cuniculus, UniProt P00518); assay: Kinase panel assay, phosphorylase kinase; assay type: biochemical; conditions: 1 μM inhibitor, 0.1 mM ATP, average of triplicate
Lck = Lck (Homo sapiens, UniProt P06239); assay: Kinase panel assay, Lck; assay type: biochemical; conditions: 1 μM inhibitor, 0.1 mM ATP, average of triplicate
Lck, sequence (P06239 whole entry, species assumed): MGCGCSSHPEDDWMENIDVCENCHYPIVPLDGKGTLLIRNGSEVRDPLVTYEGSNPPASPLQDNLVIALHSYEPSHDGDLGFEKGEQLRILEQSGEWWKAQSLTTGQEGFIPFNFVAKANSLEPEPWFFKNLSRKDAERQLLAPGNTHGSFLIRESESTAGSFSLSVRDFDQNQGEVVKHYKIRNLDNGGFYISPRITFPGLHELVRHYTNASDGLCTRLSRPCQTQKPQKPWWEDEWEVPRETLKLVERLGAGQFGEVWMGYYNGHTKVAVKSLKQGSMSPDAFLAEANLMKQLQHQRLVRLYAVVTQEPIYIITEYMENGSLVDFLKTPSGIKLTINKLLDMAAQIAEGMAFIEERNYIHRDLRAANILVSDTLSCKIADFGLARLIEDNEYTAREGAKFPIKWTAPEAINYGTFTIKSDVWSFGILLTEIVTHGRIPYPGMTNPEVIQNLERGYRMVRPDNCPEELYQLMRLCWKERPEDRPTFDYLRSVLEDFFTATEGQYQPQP

PKBΔPH = PKBΔPH (Homo sapiens, UniProt P31749); assay: biochemical; conditions: read-out: percentage of kinase activity compared to control incubations, PKBΔPH
Protocol: as §1

ROCK-II = ROCK-II (Homo sapiens, UniProt O75116); assay: Kinase panel assay, ROCK-II; assay type: biochemical; conditions: 1 μM inhibitor, 0.1 mM ATP, average of triplicate
S6K1 = S6K1 (Homo sapiens, UniProt P23443); assay: Kinase panel assay, S6K1; assay type: biochemical; conditions: 1 μM inhibitor, 0.1 mM ATP, average of triplicate
S6K1, sequence (P23443 whole entry): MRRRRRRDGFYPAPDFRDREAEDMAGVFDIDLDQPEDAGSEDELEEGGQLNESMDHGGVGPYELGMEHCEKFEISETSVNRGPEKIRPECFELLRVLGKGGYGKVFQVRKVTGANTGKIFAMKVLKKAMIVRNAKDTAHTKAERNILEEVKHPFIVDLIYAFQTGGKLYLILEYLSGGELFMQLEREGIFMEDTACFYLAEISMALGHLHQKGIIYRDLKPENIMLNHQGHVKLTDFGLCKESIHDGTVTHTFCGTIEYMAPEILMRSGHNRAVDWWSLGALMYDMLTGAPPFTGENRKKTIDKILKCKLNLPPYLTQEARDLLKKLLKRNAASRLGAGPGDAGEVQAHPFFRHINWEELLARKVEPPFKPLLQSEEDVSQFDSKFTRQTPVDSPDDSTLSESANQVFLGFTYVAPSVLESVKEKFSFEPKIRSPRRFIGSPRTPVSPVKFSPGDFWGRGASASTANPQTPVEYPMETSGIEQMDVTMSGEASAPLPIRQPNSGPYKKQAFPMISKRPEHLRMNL

GSK3β = GSK3β (Homo sapiens, UniProt P49841); assay: Kinase panel assay, GSK3β; assay type: biochemical; conditions: 1 μM inhibitor, 0.1 mM ATP, average of triplicate
GSK3β, sequence (P49841 whole entry, species assumed): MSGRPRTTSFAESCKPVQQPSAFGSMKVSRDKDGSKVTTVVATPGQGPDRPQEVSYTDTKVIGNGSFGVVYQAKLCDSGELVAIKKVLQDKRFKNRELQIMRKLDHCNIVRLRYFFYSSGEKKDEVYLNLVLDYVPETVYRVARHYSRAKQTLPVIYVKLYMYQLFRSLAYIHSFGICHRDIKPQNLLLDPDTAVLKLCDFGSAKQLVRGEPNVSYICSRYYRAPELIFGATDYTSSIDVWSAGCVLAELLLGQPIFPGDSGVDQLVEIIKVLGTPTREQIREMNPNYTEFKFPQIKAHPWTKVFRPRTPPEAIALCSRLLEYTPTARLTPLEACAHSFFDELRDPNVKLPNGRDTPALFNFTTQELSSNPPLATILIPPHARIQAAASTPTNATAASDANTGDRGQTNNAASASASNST

MSK1 = MSK1 (Homo sapiens, UniProt O75582); assay: Kinase panel assay, MSK1; assay type: biochemical; conditions: 1 μM inhibitor, 0.1 mM ATP, average of triplicate
MSK1, sequence (O75582 whole entry): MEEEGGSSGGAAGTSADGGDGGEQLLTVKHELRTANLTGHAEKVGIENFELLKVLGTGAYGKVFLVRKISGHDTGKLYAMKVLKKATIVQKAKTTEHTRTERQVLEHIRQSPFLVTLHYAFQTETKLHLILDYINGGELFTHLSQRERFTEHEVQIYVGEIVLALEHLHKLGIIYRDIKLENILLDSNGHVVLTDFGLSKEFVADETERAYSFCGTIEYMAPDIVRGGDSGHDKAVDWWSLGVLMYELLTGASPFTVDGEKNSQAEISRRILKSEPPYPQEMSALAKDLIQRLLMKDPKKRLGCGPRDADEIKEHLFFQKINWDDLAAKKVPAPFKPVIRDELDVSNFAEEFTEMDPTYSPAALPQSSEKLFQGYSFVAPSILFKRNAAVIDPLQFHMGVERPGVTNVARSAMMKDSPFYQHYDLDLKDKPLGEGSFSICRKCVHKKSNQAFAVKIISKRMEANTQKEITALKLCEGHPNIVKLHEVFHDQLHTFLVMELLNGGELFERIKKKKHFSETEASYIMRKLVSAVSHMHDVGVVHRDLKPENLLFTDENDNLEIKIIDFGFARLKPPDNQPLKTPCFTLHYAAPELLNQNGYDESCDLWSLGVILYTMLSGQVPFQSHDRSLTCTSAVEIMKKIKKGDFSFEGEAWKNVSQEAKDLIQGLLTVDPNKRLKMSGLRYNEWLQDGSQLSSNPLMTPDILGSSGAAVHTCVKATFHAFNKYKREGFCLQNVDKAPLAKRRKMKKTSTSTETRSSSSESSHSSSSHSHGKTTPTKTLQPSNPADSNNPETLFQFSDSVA

DYRK1α = DYRK1α (Homo sapiens, UniProt Q13627); assay: Kinase panel assay, DYRK1α; assay type: biochemical; conditions: 1 μM inhibitor, 0.1 mM ATP, average of triplicate
PKA = PKA (Homo sapiens, UniProt P17612); assay: Kinase panel assay, PKA; assay type: biochemical; conditions: 1 μM inhibitor, 0.1 mM ATP, average of triplicate
MKK1 = MKK1 (Homo sapiens, UniProt Q02750); assay: Kinase panel assay, MKK1; assay type: biochemical; conditions: 1 μM inhibitor, 0.1 mM ATP, average of triplicate
MKK1, sequence (Q02750 whole entry, species assumed): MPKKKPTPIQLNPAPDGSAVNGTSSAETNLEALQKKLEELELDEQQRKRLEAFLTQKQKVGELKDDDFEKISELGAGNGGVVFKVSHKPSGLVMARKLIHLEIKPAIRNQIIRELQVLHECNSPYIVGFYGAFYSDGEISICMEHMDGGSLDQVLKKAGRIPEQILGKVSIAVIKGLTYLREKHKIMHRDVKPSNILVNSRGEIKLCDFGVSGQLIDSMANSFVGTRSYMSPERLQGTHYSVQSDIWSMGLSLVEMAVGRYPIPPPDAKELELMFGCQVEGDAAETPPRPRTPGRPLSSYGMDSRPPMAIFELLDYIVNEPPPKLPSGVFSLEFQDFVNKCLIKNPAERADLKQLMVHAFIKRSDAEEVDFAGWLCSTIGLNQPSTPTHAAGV

MAPKAP-K2 = MAPKAP-K2 (Homo sapiens, UniProt P49137); assay: Kinase panel assay, MAPKAP-K2; assay type: biochemical; conditions: 1 μM inhibitor, 0.1 mM ATP, average of triplicate
MAPKAP-K2, sequence (P49137 whole entry, species assumed): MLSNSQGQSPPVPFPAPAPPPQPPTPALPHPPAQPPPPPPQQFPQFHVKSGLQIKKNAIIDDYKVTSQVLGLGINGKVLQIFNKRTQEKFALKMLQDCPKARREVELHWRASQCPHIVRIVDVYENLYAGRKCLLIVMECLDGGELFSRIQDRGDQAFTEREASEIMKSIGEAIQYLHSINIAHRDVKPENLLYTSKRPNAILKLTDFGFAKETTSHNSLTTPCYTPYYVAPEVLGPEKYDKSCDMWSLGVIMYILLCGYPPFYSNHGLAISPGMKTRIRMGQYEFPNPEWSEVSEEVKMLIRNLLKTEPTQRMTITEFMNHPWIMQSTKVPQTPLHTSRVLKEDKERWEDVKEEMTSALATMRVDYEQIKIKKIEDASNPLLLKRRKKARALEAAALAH

CSK = CSK (Homo sapiens, UniProt P41240); assay: Kinase panel assay, CSK; assay type: biochemical; conditions: 1 μM inhibitor, 0.1 mM ATP, average of triplicate
SAPK4/p38δ = SAPK4/p38δ (Homo sapiens, UniProt O15264); assay: Kinase panel assay, SAPK4/p38δ; assay type: biochemical; conditions: 1 μM inhibitor, 0.1 mM ATP, average of triplicate
SAPK4/p38δ, sequence (O15264 whole entry): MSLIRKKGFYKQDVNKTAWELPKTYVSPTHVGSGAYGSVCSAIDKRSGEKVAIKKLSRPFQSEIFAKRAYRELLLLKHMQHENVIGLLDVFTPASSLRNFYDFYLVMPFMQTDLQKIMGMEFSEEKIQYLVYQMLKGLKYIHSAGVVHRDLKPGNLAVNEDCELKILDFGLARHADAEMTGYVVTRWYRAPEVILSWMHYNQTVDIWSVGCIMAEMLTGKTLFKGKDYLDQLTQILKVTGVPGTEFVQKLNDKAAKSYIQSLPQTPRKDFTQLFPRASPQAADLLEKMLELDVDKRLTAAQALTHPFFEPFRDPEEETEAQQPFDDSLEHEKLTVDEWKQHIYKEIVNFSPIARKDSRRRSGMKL

PRAK = PRAK (Homo sapiens, UniProt Q8IW41); assay: Kinase panel assay, PRAK; assay type: biochemical; conditions: 1 μM inhibitor, 0.1 mM ATP, average of triplicate
MAPKAP-K1a = MAPKAP-K1a (Homo sapiens, UniProt Q15418); assay: Kinase panel assay, MAPKAP-K1a; assay type: biochemical; conditions: 1 μM inhibitor, 0.1 mM ATP, average of triplicate
SGK1 = SGK1 (Homo sapiens, UniProt O00141); assay: Kinase panel assay, SGK1; assay type: biochemical; conditions: 1 μM inhibitor, 0.1 mM ATP, average of triplicate
SGK1, sequence (O00141 whole entry): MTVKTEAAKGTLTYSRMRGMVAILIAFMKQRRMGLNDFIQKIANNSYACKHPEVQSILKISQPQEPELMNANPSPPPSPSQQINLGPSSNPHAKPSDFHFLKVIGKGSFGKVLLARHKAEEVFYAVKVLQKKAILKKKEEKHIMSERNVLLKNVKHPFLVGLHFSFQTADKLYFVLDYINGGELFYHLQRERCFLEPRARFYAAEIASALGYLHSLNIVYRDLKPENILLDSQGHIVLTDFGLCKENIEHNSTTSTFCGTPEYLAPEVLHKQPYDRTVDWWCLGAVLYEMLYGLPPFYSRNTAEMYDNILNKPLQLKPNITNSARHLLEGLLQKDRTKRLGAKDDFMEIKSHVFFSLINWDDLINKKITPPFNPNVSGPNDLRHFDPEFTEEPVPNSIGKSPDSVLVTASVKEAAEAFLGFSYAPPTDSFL

JNKSAPK1c = JNKSAPK1c (Homo sapiens, UniProt P45983); assay: Kinase panel assay, JNKSAPK1c; assay type: biochemical; conditions: 1 μM inhibitor, 0.1 mM ATP, average of triplicate
SAPK2α/p38 = SAPK2α/p38 (Homo sapiens, UniProt Q16539); assay: Kinase panel assay, SAPK2α/p38; assay type: biochemical; conditions: 1 μM inhibitor, 0.1 mM ATP, average of triplicate
SAPK2α/p38, sequence (Q16539 whole entry): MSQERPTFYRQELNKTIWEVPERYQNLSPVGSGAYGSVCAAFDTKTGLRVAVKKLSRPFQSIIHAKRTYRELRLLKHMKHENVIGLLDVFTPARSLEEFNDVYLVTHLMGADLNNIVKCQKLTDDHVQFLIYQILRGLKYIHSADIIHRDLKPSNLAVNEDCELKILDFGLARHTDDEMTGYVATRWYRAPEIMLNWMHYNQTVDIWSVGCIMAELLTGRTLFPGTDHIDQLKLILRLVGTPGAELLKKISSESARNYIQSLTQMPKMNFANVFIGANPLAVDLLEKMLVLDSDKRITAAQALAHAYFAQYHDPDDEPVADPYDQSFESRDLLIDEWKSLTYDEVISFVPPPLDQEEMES

SAPK2β/p38β2 = SAPK2β/p38β2 (Homo sapiens, UniProt Q15759); assay: Kinase panel assay, SAPK2β/p38β2; assay type: biochemical; conditions: 1 μM inhibitor, 0.1 mM ATP, average of triplicate
CK2 = CK2 (Homo sapiens, UniProt P68400); assay: Kinase panel assay, CK2; assay type: biochemical; conditions: 1 μM inhibitor, 0.1 mM ATP, average of triplicate
CK1 = assay: Kinase panel assay, CK1; assay type: biochemical; conditions: 1 μM inhibitor, 0.1 mM ATP, average of triplicate
NEK6 = NEK6 (Homo sapiens, UniProt Q9HC98); assay: Kinase panel assay, NEK6; assay type: biochemical; conditions: 1 μM inhibitor, 0.1 mM ATP, average of triplicate
PDK1 [3] = target: T1, PDK1; conditions: literature [21]; cited from earlier work
CHK1 [4] = target: T2, CHK1; conditions: literature [20]; cited from earlier work
[5] = target: S6K-pHM, phosphopeptide comprising the hydrophobic motif of S6K1; assay: SPR (BiaCore), against wild type PDK1
[6] = target: S6K-pHM, phosphopeptide comprising the hydrophobic motif of S6K1; assay: SPR (BiaCore), rounded value
[7] = target: S6K-pHM, phosphopeptide comprising the hydrophobic motif of S6K1; assay: SPR (BiaCore), maximal response obtained empirically
[8] = target: S6K-pHM, phosphopeptide comprising the hydrophobic motif of S6K1; assay: SPR (BiaCore 3000), biotinylated S6K-pHM on SA chip, GST-PDK1 injected at 2-2150 nM, steady state, apparent Kd
[9] = target: S6K-pHM, phosphopeptide comprising the hydrophobic motif of S6K1; assay: SPR (BiaCore), against PIFtide
[10] = target: S6K-pHM, phosphopeptide comprising the hydrophobic motif of S6K1; assay: SPR (BiaCore), dissociation phase
[11] = target: T3, wild type PDK1 fused through its N-terminus to glutathione S-transferase (GST-PDK1) (human, UniProt O15530 1-556); assay: cell-based or functional assay
T3 sequence: T1 sequence (O15530 1-556)

[12] = target: GST-PDK1[K76A] (human), O15530; assay: cell-based or functional assay
[13] = target: GST-PDK1[Q150A] (human), O15530; assay: cell-based or functional assay
[14] = target: T3, wild type PDK1 fused through its …; assay: SPR (BiaCore), biotinylated peptide on SA chip
Protocol: Binding was analysed in a BiaCore 3000 system (BiaCore AB, Stevenage, UK). […] 30 μl of wild type or the indicated mutant GST-PDK1 were injected at a flow rate of 30 μl/min, in buffer HBS-P (10 mM HEPES pH 7.4, 0.15M NaCl, 0.005% (by vol) polysorbate-20) supplemented with 1 mM DTT. […] Steady state binding was determined at each concentration. Dissociation of PDK1 from the phospho-peptide was monitored over a 1 min period. Regeneration of the sensor chip surface was performed with 10 μl injections of 0.05% SDS.

Molecule: CN[C@@H]1C[C@H]2O[C@@](C)([C@@H]1OC)n1c3ccccc3c3c4c(c5c6ccccc6n2c5c31)C(=O)N[C@H]4O [UCN-01, 7-hydroxyl staurosporine]
percentage of kinase activity compared to control incubations, PDK1 (PDK1 [1]): 0 ± 1% | percentage of kinase activity compared to control incubations, CHK1 (CHK1 [2]): 1 ± 0% | percentage of kinase activity compared to control incubations, PKCα (PKCα): 1 ± 0% | percentage of kinase activity compared to control incubations, AMPK (AMPK): 1 ± 1% | percentage of kinase activity compared to control incubations, PHOS.KINASE (PHOS.KINASE): 1 ± 2% | percentage of kinase activity compared to control incubations, Lck (Lck): 3 ± 1% | remaining activity at 1 µM (PKBΔPH): 9 ± 1% | percentage of kinase activity compared to control incubations, ROCK-II (ROCK-II): 13 ± 2% | percentage of kinase activity compared to control incubations, S6K1 (S6K1): 21 ± 4% | percentage of kinase activity compared to control incubations, GSK3β (GSK3β): 25 ± 5% | percentage of kinase activity compared to control incubations, MSK1 (MSK1): 11% and 11 ± 0% | percentage of kinase activity compared to control incubations, DYRK1α (DYRK1α): 15 ± 2% | percentage of kinase activity compared to control incubations, PKA (PKA): 27 ± 2% | percentage of kinase activity compared to control incubations, MKK1 (MKK1): 53 ± 1% | percentage of kinase activity compared to control incubations, MAPKAP-K2 (MAPKAP-K2): 60 ± 1% | percentage of kinase activity compared to control incubations, CSK (CSK): 58 ± 3% | percentage of kinase activity compared to control incubations, SAPK4/p38δ (SAPK4/p38δ): 100 ± 7% | percentage of kinase activity compared to control incubations, PRAK (PRAK): 89 ± 4% | percentage of kinase activity compared to control incubations, MAPKAP-K1a (MAPKAP-K1a): 1 ± 1% | percentage of kinase activity compared to control incubations, SGK1 (SGK1): 25% and 22 ± 4% | percentage of kinase activity compared to control incubations, JNKSAPK1c (JNKSAPK1c): 112 ± 6% | percentage of kinase activity compared to control incubations, SAPK2α/p38 (SAPK2α/p38): 107 ± 5% | percentage of kinase activity compared to control incubations, SAPK2β/p38β2 (SAPK2β/p38β2): 106 ± 4% | percentage of kinase activity compared to control incubations, CK2 (CK2): 102 ± 11% | percentage of kinase activity compared to control incubations, CK1 (CK1): 96 ± 0% | percentage of kinase activity compared to control incubations, NEK6 (NEK6): 80 ± 7% | inhibition of PDK1, recent reports (PDK1 [3]): low nM range | inhibition of Chk1, recent reports (CHK1 [4]): low nM range

Molecule: GST-PDK1[T148A] (from UniProt O15530 1-556) (enzyme)
fold higher affinity than wild type PDK1 [5]: 10 fold | Kd [6]: 60 nM | RUmax [7]: 435 RU | Kd [8]: 64 nM

Other lines, results leading:

fold lower affinity than for PIFtide [9]: 100 fold | time taken for 50% dissociation [10]: 30 s | Kd [6]: 600 nM | Kd [8]: 642 nM
Molecule: wild type PDK1 fused through its N-terminus to glutathione S-transferase (GST-PDK1) (from UniProt O15530 1-556) (enzyme)

maximal activation of PDK1 activity towards T308tide [11]: 5 fold | concentration of S6K-pHM for half maximal activation, against wild type PDK1 (fold higher than wild type PDK1) [12]: 3 | activation of PDK1 activity towards T308tide [13]: 2 fold and 3 fold
Molecule: SESANQVFLGF[pT]YVAPSV (not fully specified; printed as SESANQVFLGFT*YVAPSV) [S6K-pHM, phosphopeptide comprising the hydrophobic motif of S6K1]

activation of PDK1 activity towards T308tide [11]: < 2 fold | binding result [14]: no binding (tested: 2-2150 nM)
Molecule: SESANQVFLGFTYVAPSV (also: biotinylated in BiaCore assay, also called 56K-HM) [S6K-HM, non-phosphorylated peptide comprising the hydrophobic motif of S6K1]
